melting point [°C] | SMILES
306 | Cc1nc2c(O[C@@H]3c4ccccc4C[C@H]3O)cc(C(=O)O)cc2n1C (relative stereo)
128 to 130 | COc1cc(Nc2c(C#N)cnc3cc(/C=C/CCN4CCOCC4)ccc23)cc(OC)c1OC
48 to 52 | O=[N+]([O-])c1cc(OCc2ccccc2)ccc1CCO
155 to 156 | O=C(O)CCc1cn(Cc2ccc(OCCn3ncc4ccccc4c3=O)cc2)nc1-c1ccccc1
206 to 208 | COc1ccc(N2CCOCC2)cc1NC(=S)C(=O)Nc1ccc(F)cc1
155 to 157 | O=C(Nc1ccc(Cl)cn1)c1ccc(OC(F)F)c2oc3ccccc3c12
120 to 123 | CSC1C(=O)Nc2ccc(Oc3ccccc3Cl)cc21 (stereo not given)
172 to 173 | COc1ccc2c(c1)c(CC(=O)OCC(=O)O)c(C)n2C(=O)c1ccccc1F
185 to 187 | CC(=O)Oc1ccc(C(=O)O)cc1-c1ccccc1
244 to 246 | CCn1cc(C(=O)O)c(=O)c2cc(F)c(N3CCN(C)C(C)C3)cc21 (stereo not given)
156 | COc1ccc2[nH]c(C(=O)N3CCc4cc(C(=O)NO)ccc4C3)cc2c1
153 to 157 | CC(=O)N1CCN(c2nc(N)ncc2Oc2ccc(Cl)cc2)CC1
213 | CC#CCOc1ccc(S(=O)(=O)C(C(=O)NO)c2cccc3ccccc23)cc1 (stereo not given)
206 | Cc1nc2cc(CN3CCN(C(c4ccccc4)c4ccccc4)CC3)ccc2n1C
203 to 205 | Cc1ccc(C(=O)NCCCn2ccnc2)c(Nc2ccc3cn[nH]c3c2)n1
147 to 150 | FC(F)(F)c1ccc(Oc2ccc(CCNc3ncnc4nccnc34)cc2)nc1
79 to 81 | C=CC(=O)N1CCSc2ccc(OC)cc2C1
170 | COc1ccc(-c2nc3cc(F)ccc3s2)cc1OC(=O)N1CCOCC1
62 to 64 | CN1CCC(C(=O)Nc2ccc(CN(C)C3CCOCC3)cc2)=Cc2cc(Br)ccc21
222 to 224 | CCOC(=O)N1CCC(n2c(=O)[nH]c3ccc(C)cc32)CC1
144 to 147 | CCCC1=C(C(=O)OCC)C(c2ccccc2Cl)c2cn(C(=O)OC(C)(C)C)nc2N1 (stereo not given)
192 to 194 | O=C(CC1c2cc(Cl)ccc2S(=O)(=O)N1c1ccccc1)NO (stereo not given)

melting point [°C] | SMILES
113 | NC(=O)c1ccnc(Oc2cccc(C(F)(F)F)c2)n1
168 | CC(=O)Nc1ccc(Sc2c([N+](=O)[O-])cc(C(=O)O)cc2S(N)(=O)=O)cc1
154 to 156 | CCOC(=O)C(=O)CSc1ccc(-c2ccccc2)cc1
234 to 236 | Nc1nc(N)c(C(=O)N=CNN2CCSCC2)nc1Cl
128 | Nc1ccc(Oc2c(Cl)cc(C(F)(F)F)c(Cl)c2Cl)cc1Cl
182 to 184 | CN(C)c1ccc(/C=C/c2nc3cc(Cl)ccc3s2)cc1
137 to 138 | N#Cc1cnn2c(-c3ccncc3)ccnc12
152 | Cc1cc(N)ccc1N=Nc1ccc([N+](=O)[O-])cc1
139 to 141 | CCN(CC)CCOc1ccc(Nc2ncc3c(=O)n(Cc4ccc(OC)cc4)c(=O)n(C(C)C)c3n2)cc1
218 | Cn1c(C(=O)NN2CCCCC2)cc(-c2ccc(Cl)cc2Cl)c1-c1ccc(Cl)cc1
108 | O=[N+]([O-])c1ccc(OC(c2c(Cl)cccc2Cl)C(F)(F)F)cc1 (stereo not given)
154 to 155 | Cc1nc(N2CCCC(Cc3ccc(F)cc3)C2=O)sc1C(=O)NCc1ccccc1 (stereo not given)
86 to 89 | COc1ccc(C(=O)n2c(Br)c(Br)c(C#N)c2Br)cc1
119 to 120 | OCCOc1cc2ccccc2cc1OCCOc1ccccc1
262 | Cn1cnc2c(=O)n(-c3ccccc3)c3ncccc3c21
100 to 103 | COc1ccc(-c2ncnc(-c3ccc(C(F)(F)F)cc3F)c2N)c(O)c1
194 | CN(C)c1cc(N2C(=O)N3CCCC3(Cc3ccc(Br)cc3)C2=O)cc(Cl)n1 (stereo not given)
178 | Cc1cc(-n2cccn2)c2cccc(OCc3c(Cl)ccc(S(=O)(=O)N4CCOCC4)c3Cl)c2n1
208 to 210 | Cc1cc2c(cc1Oc1ccc(C(=O)O)cc1)C(C)(C)CCC2(C)C
276 to 278 | Cn1cc(C2=C(c3c4n(c5ccccc35)CCCC4)C(=O)OC2=O)c2ccccc21
204 to 208 | CC(C)n1nc(-c2cnc3[nH]cc(C(=O)N[C@H](C)C(=O)N4CC(C#N)C4)c3n2)c2ccc(Cl)cc21
260 to 263 | COc1cc2c(cc1S(N)(=O)=O)CCN(C(C)=O)CC2

Second part, the molecule before the results:

SMILES | melting point [°C]
CCc1cc(C(C)C)c(-c2ccc(O)cc2)cc1C | 106 to 108
CCOC(=O)C(Cc1ccc(-c2cccc(N(C)C(=O)Nc3ccc(N(C)C)cc3)c2)cc1)Nc1ccccc1C(=O)c1ccccc1 (stereo not given) | 75
O=S(=O)(Nc1onc2c1CCC2)c1ccccc1 | 132
CC(C)(C=NO)Cc1ccc(Cl)c(Cl)c1 | 84
CC(C)c1ccc(N(Cc2ccc(N(C)C)cc2)C(=O)C2CCCc3c(O)ccc(F)c32)cc1 (stereo not given) | 209
CSc1ccc(C2=C(c3ccccc3)C(=O)OC2)cc1F | 159 to 160
CSc1c(C2=C(c3cn(C)c4ccccc34)C(=O)NC2=O)c2ccccc2n1C | 281 to 283
CC1CC(=O)NN=C1c1ccc(CCCCN)cc1 (stereo not given) | 135 to 137
CCN1CN(C2CC(O)C(CO)O2)C(=O)NC1=O (stereo not given) | 162
COc1cc(Nc2nc3cccc(-c4ccc(NS(C)(=O)=O)cc4)c3o2)cc(OC)c1OC | 222 to 225
COc1cccc(CN(C)C)c1SCc1ccccc1 | 69 to 70
COC(=O)C=Cc1cc(F)cc(Br)c1 | 95 to 96
O=C(O)c1c[nH]c2cc(C(F)(F)F)nn2c1=O | > 340
CC(C)(C)OC(=O)Nc1ccc(C#Cc2ccccc2F)cc1[N+](=O)[O-] | 140 to 142
C=CCn1c2ccccc2c2sccc(=O)c21 | 67 to 68
Cc1c(-c2cncnc2)ssc1=S | 184
COCCOCC(=O)Nc1cccc2c1C1(COc3cc4c(cc31)OCCO4)C(=O)N2C (stereo not given) | 122 to 123
CC(C)c1ccc(OC(Cc2ccc(OCCNC(=O)c3ccc(-c4ccccc4)cc3)cc2)C(=O)O)cc1 (stereo not given) | 172 to 173
Cc1cc(OCC(F)(F)F)c(Cl)cc1[N+](=O)[O-] | 76 to 79

SMILES | melting point [°C]
CC(C)c1cccc(C(C)C)c1NS(=O)(=O)CC(=O)N(Cc1ccccc1)C(C)C | 168 to 170
C=CCN1C2CCC1C1CCC2N1C(c1ccc(C(=O)N2CCCC2)cc1)c1cccc(O)c1 (stereo not given) | 156 to 158
O=CO[C@H]1CC[C@H](NC(=O)OCc2ccccc2)C1 (relative stereo) | 45 to 48
CC1(C)Oc2ccc(C#N)cc2[C@@H](N2CCCC2=NC#N)[C@@H]1O (relative stereo) | 246 to 247
Cc1nc[nH]c1CSCCNC(=N)N[N+](=O)[O-] | 146 to 147
O=C(Oc1ccc(C(=O)OCc2ccccc2)cc1)C(=O)Oc1ccc(C(=O)OCc2ccccc2)cc1 | 106 to 108
CCOC(=O)C(F)Sc1ccc(O)cc1 (stereo not given) | 72
CCCC(=O)Nc1ccc2[nH]c(C(=O)O)cc2c1 | 210
Nc1ccccc1NC(=O)c1ccc(CNC(=O)c2[nH]c(-c3ccc(O)cc3)cc2-c2ccccc2)cc1 | 241 to 242
N#Cc1nc2c(nc1N)CCCC2 | 200 to 202
O=C(Nc1cccc(S(=O)(=O)NCc2ccncc2)c1)c1cnn2c(C(F)F)cc(-c3ccc(C(F)(F)F)cc3)nc12 | 221
CC(Cl)(Cl)C(NC(=O)c1cc(F)cc(F)c1)NC(=NC#N)Nc1ccc(Cl)nc1 (stereo not given) | 195 to 196
O=C(Cl)C1CCCCC1 | 41 to 42
O=C1CC(c2ccccc2)N(C(=O)Cl)N1 (stereo not given) | 146
N#Cc1cccc(CCc2n[nH]c3c2c(=O)n(-c2ccccc2)c2ncccc32)c1 | 220 to 224
O=S(=O)(N[C@H](CO)Cc1c[nH]c2ccccc12)c1cccc2ccccc12 | 85 to 87
COc1ccc(-c2noc(C)n2)c(OC)c1C | 105 to 107
CCCCCCCCCCc1ccnc(C(=O)NCC(=O)OCC)c1 | 29 to 30
CC1(C)CC(=O)C(c2ccc([N+](=O)[O-])cc2Cl)C(=O)C1 | 250 to 253

SMILES | melting point [°C]
CSc1sc(C(N)=O)c2c1-c1oc(C)nc1CC2 | > 300
CC1(C)CCC(C)(C)c2cc(C=O)c(C#C[Si](C)(C)C)cc21 | 78.4 to 82
COc1ccc(C(=O)CC(=O)OC(C)(C)C)c(O)c1 | 40 to 42
CCN(CC)C(=O)c1c2nc3c(C(=O)N(CC)CC)c(N)c(O)c(C)c3oc-2c(C)c(=O)c1N | 262 to 265
CC(C)Cn1c(OCc2ccccc2)noc1=O | 53 to 60
CCOC(=O)CC[C@H](NC(=O)CCc1cc(Cl)ccc1C(=O)CCCNC(C)=O)C(=O)OCC | 109 to 111
COC1=C(C#N)C(c2ccccc2)=C2C(=O)N(C)C(c3ccccc3)=C12 | 210 to 212
Nc1ccc(C(=O)Nc2ccc(-n3nc(C(F)(F)F)cc3C(F)(F)F)cc2)cc1 | > 240
CCOC(=O)c1sc(C)c(C(=O)OCC)c1OC | 109 to 111
C=C(C)Cc1c(O)c(C)c(C)c2c1CC(C)N2C=O (stereo not given) | 133 to 135
CCOC(=O)c1cccc(O)c1O | 66 to 67.2
Cn1cc(C2=C(c3ccsc3)C(=O)NC2=O)c2ccccc21 | 211 to 212
CCN(CC)CCNC(=O)c1cccc2c(=O)c3cccc(I)c3[nH]c12 | 148 to 150
CN1C(=O)Nc2ccccc2C12NC(=O)N(COCc1ccccc1)C2=O (stereo not given) | 226 to 227
CNCc1nc(-c2ncn3c2CN(C)C(=O)c2c(Cl)cccc2-3)no1 | 192 to 193
CN(CCCC(=O)Nc1ccc2[nH]ncc2c1)Cc1ccccc1 | 115 to 117
c1cc(CCCCCc2nnn[nH]2)n2cncc2c1 | 149 to 150
CN1C(C)(C)CC(O)(CN2C(=O)C3(COc4cc5c(cc43)OCO5)c3ccccc32)CC1(C)C (stereo not given) | 210 to 214

Reference: a melting point compilation (Tetko et al.; mined from patent text by program, amines drawn as free bases though some values may be those of a salt)
